Data from article PMC7615677 (Science translational medicine, 2023).
Like-named read-outs stand apart in the source and are kept apart here.

Assays:
[1] = In vivo pharmacokinetics; parameters: species or system female golden Syrian hamsters; details: for AUC(0-t): read-out: AUC0-24 (first dose); for AUC: read-out: AUC96-120 (last dose)
Protocol: Additional PK studies were also conducted by WuXi AppTec Co, Ltd (Shanghai, China) according to protocols reviewed and approved by DNDi. […] IV and oral formulations for rats, mice and hamsters were the same as described above. For dogs, the IV dose was administered in saline containing 2% DMSO and 3% Solutol HS-15 and the oral formulation was as described above. Blood was sampled up to 48 h post-dose into vials containing potassium EDTA as an anticoagulant, proteins were precipitated with acetonitrile and plasma was separated and assayed by LC-MS.
Single dose pharmacokinetic parameters (clearance, volume of distribution and half-life) were initially estimated using non-compartmental methods and oral bioavailability was calculated using the ratio of the dose corrected AUC after oral dosing relative to that after IV administration. […] Where a full concentration versus time profile was obtained from a single animal, parameters were estimated for each animal and mean and standard deviations calculated. In the case of mice where sparse sampling was used with multiple animals per time point, the data analysis was conducted using the mean profile.

[2] = Binding to liver microsomes; type: in vitro ADME; details: pH 7.4; human liver microsomes 1 mg/mL; read-out: Microsome fraction unbound
Protocol: (§1) Dialysis was conducted for 6 h and parallel non-dialyzed samples were included to confirm the absence of compound degradation. Binding to hepatocytes (at a cell density of 1 x 10^6 cells/mL) was calculated from the measured microsomal binding (at 1 mg/mL) as described previously ([26]). The fraction unbound (fu) was determined from the ratio of the dialysate to the donor concentration, assuming that the system was at steady state at the end of the dialysis period. For plasma, the data were corrected for the dilution factor to give a binding value for neat plasma according to previously published methods ([27]).

[3] = Plasma protein binding (rapid equilibrium dialysis); type: in vitro ADME; details: diluted to 10% in PBS, pH 7.4
Protocol: Human plasma was purchased from Innovative Research, Inc (Novi, MI, USA). Dog (beagle), rat (Sprague Dawley) and hamster (golden Syrian) plasma were procured from Valley Biomedical Products and Services, Inc. (Winchester, VA, USA). Mouse (BALB/c) plasma was collected in-house (animals sourced from Monash Animal Services, Monash University). All plasma was stored frozen at -20°C until use.
Plasma protein binding was assessed using rapid equilibrium dialysis (RED) according to methods published previously ([10]). […] Parallel spiked aliquots of 10% plasma were used to assess compound stability under the same incubation conditions. At the completion of the dialysis period, aliquots were taken from the donor and dialysate chambers to obtain measurements of the total and free concentration, respectively. The pH of the matrix and dialysate were confirmed to be within pH 7.4 ± 0.1 for the duration of the experiment.
as §1

[4] = female, golden Syrian, hamster, plasma, hamsters, oral 12.5 mg/kg qd, 5 days
[5] = female, golden Syrian, hamster, plasma, hamsters, oral 25 mg/kg qd, 5 days

SMILES: Cc1[nH]c2nc(N)nc(C)c2c1-c1ccc(C#N)c2c1OCO2 [DNDI-6174]
- Cmax at 5 days [1, 4]: 3530 ng/mL
- AUC(0-t) [1, 4]: 22900 ng·h/mL
- AUC [1, 4]: 30200 ng·h/mL
- Cmax at 5 days [1, 5]: 7790 ng/mL
- AUC(0-t) [1, 5]: 44200 ng·h/mL
- AUC [1, 5]: 77400 ng·h/mL
- Cmax ([1]; female, golden Syrian, hamster, plasma, hamsters, oral 25 mg/kg qd, 5 days, read-out: Cmax (Day 1)): 4560 ng/mL
- AUC(0-t) ([1]; female, golden Syrian, hamster, plasma, hamsters, oral 50 mg/kg, single dose on day 1 only): 145000 ng·h/mL
- Cmax ([1]; female, golden Syrian, hamster, plasma, hamsters, oral 50 mg/kg, single dose on day 1 only, read-out: Cmax (Day 1)): 13200 ng/mL
- Tmax ([1]; female, golden Syrian, plasma, Hamster, oral 12.5 mg/kg): 2.7 h
- half-life ([1]; female, golden Syrian, plasma, Hamster, oral 12.5 mg/kg, read-out: Apparent t1/2 (converted)): 2.6 h
- Cmax ([1]; female, golden Syrian, plasma, Hamster, oral 12.5 mg/kg, read-out: Cmax): 2870 ng/mL
- AUC(0-inf) ([1]; female, golden Syrian, plasma, Hamster, oral 12.5 mg/kg, read-out: Plasma AUC0-∞): 21200 ng·h/mL
- Cmax (Day 1) ([1]; hamsters, oral 12.5 mg/kg qd, 5 days): 2870 ng/mL
- fraction unbound at 6 h, 0.5 µM [2]: 0.51
- fraction unbound at 24 h ([3]; BALB/c, mouse): 0.12
- fraction unbound at 24 h ([3]; Sprague Dawley, rat): 0.069
- fraction unbound at 24 h ([3]; beagle, dog): 0.05
- fraction unbound at 24 h ([3]; golden Syrian, hamster): 0.09
- fraction unbound at 24 h ([3]; human): 0.059
